Laboratory results published in patent US20030109448A1, “Methods of promoting uptake and nuclear accumulation of polyamides in eukaryotic cells” (priority 2001, published 2003).
“Also recorded” adds a separate entry of the source.

Assays:
[1] = tested on: RSF cells; test: Effect of P-gp inhibitors on intracellular distribution of Compound 1; assay type: cell-based, human
[2] = tested on: HCT116 human colon cancer cells; test: Intracellular distribution of fluorescent-labeled polyamides by fluorescence microscopy; assay type: cell-based; settings: HCT116, overnight at 37° C.
Procedure: Previously established low passage number human colon cancer HCT116 cells were cultured as monolayers and maintained at 37° C. in a humidified incubator with 5% CO2 in buffered medium consisting of RPMI 1640 (GIBCO, Life Technologies, Rockville, Md.) supplemented with 2 mM L-glutamine, 10% fetal bovine serum (GIBCO), 100 Units/ml Penicillin-Streptomycin and 25 μg/ml Gentamicin. Previously established low passage number human rheumatoid synovial fibroblasts (RSFs) were cultured in DMEM (GIBCO 11995-040) supplemented with 15% FBS, 1% glutamine, and 50 µg/ml Gentamycin.
HCT116 cells or RSF cells (8×10^5) were plated on 25-mm round glass coverslips in 30-mm wells and incubated for 24 hr to allow cells to adhere. […]
Live wet mounted cells were examined and photographed using an Olympus AX70 Microscope equipped with fluorescence optics and a Sony 3CCD color video camera. DAPI was detected using a bandpass 405±20 nm excitation filter, a 420 nm dichroic beam splitter, and a ≧450 emission filter (DAPI filter set). BODIPY and fluorescein conjugated polyamides were selectively detected using a bandpass 485±11 nm excitation filter, a 505 nm dichroic beam splitter, and a 530±15 nm emission filter (fluorescein filter set). Organelle-specific probes were detected using a 546+/−5 nm excitation filter, a 570 nm dichroic beam splitter and a 590 nm longpass emission filter (Rhodamine filter set). […]

| Compound | effect on intracellular distribution of Compound 1 [1] | location of Compound 1 green fluorescence in presence of inhibitor [1] | fluorescent-filled vesicles [2] | nuclear fluorescence (nuclear localization) [2] |
| --- | --- | --- | --- | --- |
| COc1ccc(CCN(C)CCCC(C#N)(c2ccc(OC)c(OC)c2)C(C)C)cc1OC (stereo not shown) [verapamil] | dramatic reduction in cytoplasmic fluorescence accompanied by a re-distribution of Compound 1 to the nucleus | observed in the nuclei in the presence of verapamil |  |  |
| Im-Im-Py-Py-γ-Py-Py-Py-Py-β-Ta-FITC [Compound 2] |  |  | absent | nuclei are brightly stained; also recorded: observed in the nuclei of the cells |
